Reference: PubChem BioAssay AID1963959 (Molecular Pharmacology Branch, DTP, NCI, 2024)

Tested on: T-47D spheroids with HUVEC/MSC, viability
Assay: Anticancer human tumor T-47D cell line growth inhibition [PI3K];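 also: spheroids exposed to agents for seven days before reading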;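 as to viability, T/C: percent of DMSO vehicle control luminescence so 100% = untreated growth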
Conditions: for IC50: curve of first compound; for viability, T/C: stronger effect = lower value
Method in brief: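 Targeted small molecules plus PI3K inhibitors, half-log dose series from Cmax (default top 10 microM), were applied to heterotypic spheroids of cancer cells with HUVEC and MSCs. Viability indicated growth inhibition.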

[1] = second compound 0.0316 µM, first compound 0.0316 µM
[2] = second compound 0.0316 µM, first compound 0.1 µM
[3] = second compound 0.1 µM, first compound 0.0316 µM
[4] = second compound 0.1 µM, first compound 0.1 µM
[5] = second compound 0.316 µM, first compound 0.0316 µM
[6] = second compound 0.316 µM, first compound 0.1 µM
[7] = second compound 1 µM, first compound 0.0316 µM
[8] = second compound 1 µM, first compound 0.1 µM
[9] = second compound 3.16 µM, first compound 0.0316 µM
[10] = second compound 3.16 µM, first compound 0.1 µM
[11] = second compound 10 µM, first compound 0.0316 µM
[12] = second compound 10 µM, first compound 0.1 µM

CC(=O)c1c(C)c2cnc(Nc3ccc(N4CCNCC4)cn3)nc2n(C2CCCC2)c1=O + CC(Nc1ncnc2nc[nH]c12)c1cc2cccc(Cl)c2c(=O)n1-c1ccccc1
IC50 (second compound 0.0316 µM): > 0.1 µM
IC50 (second compound 0.1 µM): > 0.1 µM
IC50 (second compound 0.316 µM): > 0.1 µM
IC50 (second compound 1 µM): > 0.1 µM
IC50 (second compound 3.16 µM): > 0.1 µM
IC50 (second compound 10 µM): > 0.1 µM
viability, T/C (second compound 0.0316 µM, first compound 0.000316 µM): 96%
viability, T/C (second compound 0.0316 µM, first compound 0.001 µM): 99%
viability, T/C (second compound 0.0316 µM, first compound 0.00316 µM): 100%
viability, T/C (second compound 0.0316 µM, first compound 0.01 µM): 91.2%
viability, T/C [1]: 86.5%
viability, T/C [2]: 71.3%
viability, T/C (second compound 0.1 µM, first compound 0.000316 µM): 91.2%
viability, T/C (second compound 0.1 µM, first compound 0.001 µM): 90.2%
viability, T/C (second compound 0.1 µM, first compound 0.00316 µM): 96.1%
viability, T/C (second compound 0.1 µM, first compound 0.01 µM): 73.3%
viability, T/C [3]: 100%
viability, T/C [4]: 83.6%
viability, T/C (second compound 0.316 µM, first compound 0.000316 µM): 92.8%
viability, T/C (second compound 0.316 µM, first compound 0.001 µM): 93.7%
viability, T/C (second compound 0.316 µM, first compound 0.00316 µM): 82%
viability, T/C (second compound 0.316 µM, first compound 0.01 µM): 90.6%
viability, T/C [5]: 86.9%
viability, T/C [6]: 84%
viability, T/C (second compound 1 µM, first compound 0.000316 µM): 80.1%
viability, T/C (second compound 1 µM, first compound 0.001 µM): 73.8%
viability, T/C (second compound 1 µM, first compound 0.00316 µM): 79.6%
viability, T/C (second compound 1 µM, first compound 0.01 µM): 89%
viability, T/C [7]: 76.6%
viability, T/C [8]: 80.6%
viability, T/C (second compound 3.16 µM, first compound 0.000316 µM): 81.2%
viability, T/C (second compound 3.16 µM, first compound 0.001 µM): 88.6%
viability, T/C (second compound 3.16 µM, first compound 0.00316 µM): 100%
viability, T/C (second compound 3.16 µM, first compound 0.01 µM): 85.1%
viability, T/C [9]: 85.8%
viability, T/C [10]: 69.8%
viability, T/C (second compound 10 µM, first compound 0.000316 µM): 88.4%
viability, T/C (second compound 10 µM, first compound 0.001 µM): 76.3%
viability, T/C (second compound 10 µM, first compound 0.00316 µM): 78%
viability, T/C (second compound 10 µM, first compound 0.01 µM): 70.8%
viability, T/C [11]: 80.6%
viability, T/C [12]: 65.2%

CCCS(=O)(=O)Nc1ccc(F)c(C(=O)c2c[nH]c3ncc(-c4ccc(Cl)cc4)cc23)c1F + CC(Nc1ncnc2nc[nH]c12)c1cc2cccc(Cl)c2c(=O)n1-c1ccccc1
IC50 (second compound 0.0316 µM): > 10 µM
IC50 (second compound 0.1 µM): > 10 µM
IC50 (second compound 0.316 µM): 8.46 µM
IC50 (second compound 1 µM): > 10 µM
IC50 (second compound 3.16 µM): 9.93 µM
IC50 (second compound 10 µM): 9.51 µM
viability, T/C [1]: 114%
viability, T/C [2]: 98.7%
viability, T/C (second compound 0.0316 µM, first compound 0.316 µM): 84.7%
viability, T/C (second compound 0.0316 µM, first compound 1 µM): 98.4%
viability, T/C (second compound 0.0316 µM, first compound 3.16 µM): 88.6%
viability, T/C (second compound 0.0316 µM, first compound 10 µM): 53%
viability, T/C [3]: 84.5%
viability, T/C [4]: 96.1%
viability, T/C (second compound 0.1 µM, first compound 0.316 µM): 105%
viability, T/C (second compound 0.1 µM, first compound 1 µM): 84.8%
viability, T/C (second compound 0.1 µM, first compound 3.16 µM): 104%
viability, T/C (second compound 0.1 µM, first compound 10 µM): 52.1%
viability, T/C [5]: 107%
viability, T/C [6]: 87.7%
viability, T/C (second compound 0.316 µM, first compound 0.316 µM): 109%
viability, T/C (second compound 0.316 µM, first compound 1 µM): 83.8%
viability, T/C (second compound 0.316 µM, first compound 3.16 µM): 92%
viability, T/C (second compound 0.316 µM, first compound 10 µM): 42.9%
viability, T/C [7]: 97.2%
viability, T/C [8]: 106%
viability, T/C (second compound 1 µM, first compound 0.316 µM): 89.2%
viability, T/C (second compound 1 µM, first compound 1 µM): 112%
viability, T/C (second compound 1 µM, first compound 3.16 µM): 85.6%
viability, T/C (second compound 1 µM, first compound 10 µM): 50.3%
viability, T/C [9]: 85.5%
viability, T/C [10]: 104%
viability, T/C (second compound 3.16 µM, first compound 0.316 µM): 73.6%
viability, T/C (second compound 3.16 µM, first compound 1 µM): 84.8%
viability, T/C (second compound 3.16 µM, first compound 3.16 µM): 85.3%
viability, T/C (second compound 3.16 µM, first compound 10 µM): 49.8%
viability, T/C [11]: 84.7%
viability, T/C [12]: 82.8%
viability, T/C (second compound 10 µM, first compound 0.316 µM): 92.2%
viability, T/C (second compound 10 µM, first compound 1 µM): 72.7%
viability, T/C (second compound 10 µM, first compound 3.16 µM): 74.7%
viability, T/C (second compound 10 µM, first compound 10 µM): 48.2%
